Data taken from paper PMC4685510, “A Cell Biologist’s Field Guide to Aurora Kinase Inhibitors” (Frontiers in Oncology, 2015).

What was measured:
Experiment in all cases: biochemical
Format in all cases: biochemical
[1] = molecular target: 363 human kinases (including Aurora A/B/C) (Homo sapiens, UniProt P05771); details: PKCb1; for remaining activity at 0.1 µM: 100 nM; for remaining activity at 0.1 µM / remaining activity at 0.5 µM: read-out: % Enzyme Activity (relative to DMSO controls)
Text: (§1) However, the Aurora A/B selectivity ratios derived from our in vitro and in vivo data can be compared to prioritize inhibitors.

[2] = molecular target: 363 human kinases (including Aurora A/B/C) (Homo sapiens, UniProt Q6IQ55); details: TTBK2; for remaining activity at 0.1 µM: 100 nM; for remaining activity at 0.1 µM / remaining activity at 0.5 µM: read-out: % Enzyme Activity (relative to DMSO controls)
363 human kinases (including Aurora A/B/C) (Homo sapiens, UniProt Q6IQ55), sequence (Q6IQ55 whole entry): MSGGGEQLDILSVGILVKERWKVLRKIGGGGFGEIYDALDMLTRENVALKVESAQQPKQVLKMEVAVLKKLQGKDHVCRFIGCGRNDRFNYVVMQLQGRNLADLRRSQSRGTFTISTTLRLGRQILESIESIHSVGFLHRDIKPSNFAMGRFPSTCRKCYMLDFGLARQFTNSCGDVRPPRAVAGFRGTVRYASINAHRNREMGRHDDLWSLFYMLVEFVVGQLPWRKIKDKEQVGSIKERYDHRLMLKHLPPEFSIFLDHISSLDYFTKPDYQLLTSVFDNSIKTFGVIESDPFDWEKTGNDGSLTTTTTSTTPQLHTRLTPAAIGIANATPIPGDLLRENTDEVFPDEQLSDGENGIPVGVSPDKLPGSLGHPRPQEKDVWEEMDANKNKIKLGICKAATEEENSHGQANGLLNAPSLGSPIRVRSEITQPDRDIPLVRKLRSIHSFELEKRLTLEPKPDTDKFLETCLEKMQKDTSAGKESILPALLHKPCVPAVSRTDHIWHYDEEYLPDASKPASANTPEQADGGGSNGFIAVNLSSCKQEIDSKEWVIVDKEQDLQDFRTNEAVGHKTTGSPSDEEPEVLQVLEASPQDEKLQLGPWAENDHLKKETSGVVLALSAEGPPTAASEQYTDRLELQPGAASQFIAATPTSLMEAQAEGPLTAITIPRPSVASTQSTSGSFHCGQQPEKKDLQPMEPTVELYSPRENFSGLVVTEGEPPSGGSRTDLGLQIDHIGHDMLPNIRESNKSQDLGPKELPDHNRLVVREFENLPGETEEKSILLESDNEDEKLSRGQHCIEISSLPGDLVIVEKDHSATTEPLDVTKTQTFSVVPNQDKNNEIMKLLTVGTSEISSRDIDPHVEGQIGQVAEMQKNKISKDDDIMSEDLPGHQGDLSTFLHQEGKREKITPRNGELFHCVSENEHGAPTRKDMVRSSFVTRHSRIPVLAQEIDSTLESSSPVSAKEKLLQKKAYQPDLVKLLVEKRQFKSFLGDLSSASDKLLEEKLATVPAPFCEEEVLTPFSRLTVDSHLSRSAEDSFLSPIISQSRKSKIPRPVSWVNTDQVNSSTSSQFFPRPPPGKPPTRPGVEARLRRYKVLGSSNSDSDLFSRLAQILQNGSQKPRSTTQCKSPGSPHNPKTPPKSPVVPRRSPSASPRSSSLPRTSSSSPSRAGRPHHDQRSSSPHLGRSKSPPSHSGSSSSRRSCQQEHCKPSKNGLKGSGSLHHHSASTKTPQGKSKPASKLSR
Text: as §1

[3] = molecular target: T1, 363 human kinases (including Aurora A/B/C) (Homo sapiens, UniProt Q12851); details: GCK/MAP4K2; for remaining activity at 0.1 µM: 100 nM; for remaining activity at 0.1 µM / remaining activity at 0.5 µM: read-out: % Enzyme Activity (relative to DMSO controls)
T1 sequence (Q12851 1-820): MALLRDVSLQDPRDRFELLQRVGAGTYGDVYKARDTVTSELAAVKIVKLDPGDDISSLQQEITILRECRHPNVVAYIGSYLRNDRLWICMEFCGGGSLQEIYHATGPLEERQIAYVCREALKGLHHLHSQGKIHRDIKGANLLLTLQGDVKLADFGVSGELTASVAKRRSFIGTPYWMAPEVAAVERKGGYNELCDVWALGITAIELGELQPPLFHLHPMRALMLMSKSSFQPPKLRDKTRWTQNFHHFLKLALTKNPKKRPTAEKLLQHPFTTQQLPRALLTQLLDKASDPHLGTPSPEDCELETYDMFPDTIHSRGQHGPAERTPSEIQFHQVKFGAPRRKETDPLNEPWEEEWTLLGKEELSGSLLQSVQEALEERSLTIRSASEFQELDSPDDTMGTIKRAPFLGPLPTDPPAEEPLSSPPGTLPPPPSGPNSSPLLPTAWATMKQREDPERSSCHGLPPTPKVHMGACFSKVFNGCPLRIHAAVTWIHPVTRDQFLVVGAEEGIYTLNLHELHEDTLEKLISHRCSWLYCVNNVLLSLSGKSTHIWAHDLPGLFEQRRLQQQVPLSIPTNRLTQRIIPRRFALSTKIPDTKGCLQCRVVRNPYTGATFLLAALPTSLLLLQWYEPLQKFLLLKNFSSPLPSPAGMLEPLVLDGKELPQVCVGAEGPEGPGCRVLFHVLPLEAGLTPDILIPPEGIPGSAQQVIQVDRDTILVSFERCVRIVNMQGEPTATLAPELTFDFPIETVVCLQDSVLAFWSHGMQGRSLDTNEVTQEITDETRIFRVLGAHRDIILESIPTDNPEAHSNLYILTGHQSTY
Text: as §1

[4] = molecular target: T2, 363 human kinases (including Aurora A/B/C) (Homo sapiens, UniProt Q96PN8); details: TSSK3/STK22C; for remaining activity at 0.1 µM: 100 nM; for remaining activity at 0.1 µM / remaining activity at 0.5 µM: read-out: % Enzyme Activity (relative to DMSO controls)
T2 sequence (Q96PN8 1-268): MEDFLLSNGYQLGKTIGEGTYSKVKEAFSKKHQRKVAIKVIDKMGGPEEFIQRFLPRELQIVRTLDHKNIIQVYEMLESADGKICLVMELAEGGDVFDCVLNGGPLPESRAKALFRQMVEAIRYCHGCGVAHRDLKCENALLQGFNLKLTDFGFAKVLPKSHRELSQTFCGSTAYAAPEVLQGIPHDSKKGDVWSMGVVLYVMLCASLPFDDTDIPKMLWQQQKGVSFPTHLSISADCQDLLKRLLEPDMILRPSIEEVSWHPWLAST
Text: as §1

[5] = molecular target: 363 human kinases (including Aurora A/B/C) (Homo sapiens, UniProt P53671); details: LIMK2; for remaining activity at 0.1 µM: 100 nM; for remaining activity at 0.1 µM / remaining activity at 0.5 µM: read-out: % Enzyme Activity (relative to DMSO controls)
363 human kinases (including Aurora A/B/C) (Homo sapiens, UniProt P53671), sequence (P53671 whole entry): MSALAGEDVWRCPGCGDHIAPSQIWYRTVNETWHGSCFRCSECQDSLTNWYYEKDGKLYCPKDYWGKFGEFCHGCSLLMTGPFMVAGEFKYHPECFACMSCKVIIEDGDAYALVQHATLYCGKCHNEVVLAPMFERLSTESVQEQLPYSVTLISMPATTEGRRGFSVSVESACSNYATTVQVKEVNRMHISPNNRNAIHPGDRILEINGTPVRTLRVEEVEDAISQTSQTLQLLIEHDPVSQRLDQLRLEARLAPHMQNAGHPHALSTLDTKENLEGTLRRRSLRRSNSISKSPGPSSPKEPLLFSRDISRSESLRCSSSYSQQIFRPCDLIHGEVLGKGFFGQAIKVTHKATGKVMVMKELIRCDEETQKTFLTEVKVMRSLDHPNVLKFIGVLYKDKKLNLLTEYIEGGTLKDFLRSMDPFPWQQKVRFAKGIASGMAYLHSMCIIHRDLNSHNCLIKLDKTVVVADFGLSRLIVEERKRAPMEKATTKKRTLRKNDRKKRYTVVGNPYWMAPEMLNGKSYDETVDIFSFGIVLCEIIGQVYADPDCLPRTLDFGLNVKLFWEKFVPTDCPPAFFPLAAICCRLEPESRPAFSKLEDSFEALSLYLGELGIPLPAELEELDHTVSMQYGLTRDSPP
Text: as §1

[6] = molecular target: 363 human kinases (including Aurora A/B/C) (Homo sapiens, UniProt P15056); details: BRAF, [ATP] 10 µM; for remaining activity at 0.1 µM: 100 nM; for remaining activity at 0.1 µM / remaining activity at 0.5 µM: read-out: % Enzyme Activity (relative to DMSO controls)
363 human kinases (including Aurora A/B/C) (Homo sapiens, UniProt P15056), sequence (P15056 whole entry): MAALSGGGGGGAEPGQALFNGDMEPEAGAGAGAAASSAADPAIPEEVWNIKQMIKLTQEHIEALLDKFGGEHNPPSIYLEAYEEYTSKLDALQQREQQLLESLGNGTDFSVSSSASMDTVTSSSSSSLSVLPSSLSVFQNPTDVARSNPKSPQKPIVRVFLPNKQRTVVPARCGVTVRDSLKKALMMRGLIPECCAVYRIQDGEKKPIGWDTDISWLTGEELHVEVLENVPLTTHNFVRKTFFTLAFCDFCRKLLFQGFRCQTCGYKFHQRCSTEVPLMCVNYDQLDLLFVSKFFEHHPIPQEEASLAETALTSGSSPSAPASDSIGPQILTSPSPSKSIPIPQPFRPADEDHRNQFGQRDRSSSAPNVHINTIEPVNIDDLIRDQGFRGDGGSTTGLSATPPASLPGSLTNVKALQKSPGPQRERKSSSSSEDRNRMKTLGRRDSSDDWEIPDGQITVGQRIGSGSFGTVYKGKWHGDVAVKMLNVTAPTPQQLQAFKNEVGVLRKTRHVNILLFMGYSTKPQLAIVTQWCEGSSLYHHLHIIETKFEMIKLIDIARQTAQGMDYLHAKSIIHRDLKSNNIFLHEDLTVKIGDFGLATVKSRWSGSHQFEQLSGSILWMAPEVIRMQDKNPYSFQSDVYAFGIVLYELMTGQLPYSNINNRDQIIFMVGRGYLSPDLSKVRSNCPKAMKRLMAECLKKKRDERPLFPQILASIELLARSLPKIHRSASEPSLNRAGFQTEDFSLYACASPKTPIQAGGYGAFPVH
Text: as §1

[7] = molecular target: 363 human kinases (including Aurora A/B/C) (Homo sapiens, UniProt Q16644); details: MAPKAPK3; for remaining activity at 0.1 µM: 100 nM; for remaining activity at 0.1 µM / remaining activity at 0.5 µM: read-out: % Enzyme Activity (relative to DMSO controls)
363 human kinases (including Aurora A/B/C) (Homo sapiens, UniProt Q16644), sequence (Q16644 whole entry): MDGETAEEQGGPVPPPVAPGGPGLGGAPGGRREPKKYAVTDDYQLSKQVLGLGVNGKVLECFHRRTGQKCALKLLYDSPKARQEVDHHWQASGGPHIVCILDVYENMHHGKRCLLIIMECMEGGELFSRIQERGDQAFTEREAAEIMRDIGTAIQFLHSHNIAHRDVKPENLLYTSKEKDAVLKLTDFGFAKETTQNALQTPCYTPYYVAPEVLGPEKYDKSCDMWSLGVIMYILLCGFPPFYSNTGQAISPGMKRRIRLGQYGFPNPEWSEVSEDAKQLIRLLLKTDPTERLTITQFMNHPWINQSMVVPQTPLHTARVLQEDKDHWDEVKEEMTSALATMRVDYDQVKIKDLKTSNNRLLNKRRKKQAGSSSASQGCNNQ
Text: as §1

[8] = molecular target: T3, 363 human kinases (including Aurora A/B/C) (Homo sapiens, UniProt Q13873); details: BMPR2, [ATP] 15 µM; for remaining activity at 0.1 µM: 100 nM; for remaining activity at 0.1 µM / remaining activity at 0.5 µM: read-out: % Enzyme Activity (relative to DMSO controls)
T3 sequence (Q13873 27-1038): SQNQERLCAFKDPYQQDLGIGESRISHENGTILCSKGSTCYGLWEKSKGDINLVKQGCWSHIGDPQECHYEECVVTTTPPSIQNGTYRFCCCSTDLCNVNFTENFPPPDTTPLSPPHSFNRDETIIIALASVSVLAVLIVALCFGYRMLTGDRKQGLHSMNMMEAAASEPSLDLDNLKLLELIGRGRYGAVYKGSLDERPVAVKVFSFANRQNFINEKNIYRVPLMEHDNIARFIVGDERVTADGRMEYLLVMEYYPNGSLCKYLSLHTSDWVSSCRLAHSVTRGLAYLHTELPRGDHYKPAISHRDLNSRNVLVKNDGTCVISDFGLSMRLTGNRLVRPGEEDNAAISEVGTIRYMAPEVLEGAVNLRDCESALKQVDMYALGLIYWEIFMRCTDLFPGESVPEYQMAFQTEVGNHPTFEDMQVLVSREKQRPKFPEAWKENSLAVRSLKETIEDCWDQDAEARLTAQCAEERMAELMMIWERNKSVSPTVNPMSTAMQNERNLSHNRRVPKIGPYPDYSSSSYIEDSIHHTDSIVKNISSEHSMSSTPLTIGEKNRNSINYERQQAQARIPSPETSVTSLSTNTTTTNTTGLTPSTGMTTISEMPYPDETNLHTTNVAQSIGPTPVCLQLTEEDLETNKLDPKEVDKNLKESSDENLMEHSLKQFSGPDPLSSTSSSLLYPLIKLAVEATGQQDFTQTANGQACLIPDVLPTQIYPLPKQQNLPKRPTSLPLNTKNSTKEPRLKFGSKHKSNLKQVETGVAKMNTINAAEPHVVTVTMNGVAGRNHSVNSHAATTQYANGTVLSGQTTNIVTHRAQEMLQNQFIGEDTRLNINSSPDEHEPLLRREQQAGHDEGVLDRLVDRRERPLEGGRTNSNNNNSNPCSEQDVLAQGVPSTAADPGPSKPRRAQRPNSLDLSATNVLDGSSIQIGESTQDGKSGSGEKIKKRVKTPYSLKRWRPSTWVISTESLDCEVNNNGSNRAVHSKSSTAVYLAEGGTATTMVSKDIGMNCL
Text: as §1

363 human kinases (including Aurora A/B/C) (Homo sapiens, UniProt P05771), sequence (P05771 whole entry): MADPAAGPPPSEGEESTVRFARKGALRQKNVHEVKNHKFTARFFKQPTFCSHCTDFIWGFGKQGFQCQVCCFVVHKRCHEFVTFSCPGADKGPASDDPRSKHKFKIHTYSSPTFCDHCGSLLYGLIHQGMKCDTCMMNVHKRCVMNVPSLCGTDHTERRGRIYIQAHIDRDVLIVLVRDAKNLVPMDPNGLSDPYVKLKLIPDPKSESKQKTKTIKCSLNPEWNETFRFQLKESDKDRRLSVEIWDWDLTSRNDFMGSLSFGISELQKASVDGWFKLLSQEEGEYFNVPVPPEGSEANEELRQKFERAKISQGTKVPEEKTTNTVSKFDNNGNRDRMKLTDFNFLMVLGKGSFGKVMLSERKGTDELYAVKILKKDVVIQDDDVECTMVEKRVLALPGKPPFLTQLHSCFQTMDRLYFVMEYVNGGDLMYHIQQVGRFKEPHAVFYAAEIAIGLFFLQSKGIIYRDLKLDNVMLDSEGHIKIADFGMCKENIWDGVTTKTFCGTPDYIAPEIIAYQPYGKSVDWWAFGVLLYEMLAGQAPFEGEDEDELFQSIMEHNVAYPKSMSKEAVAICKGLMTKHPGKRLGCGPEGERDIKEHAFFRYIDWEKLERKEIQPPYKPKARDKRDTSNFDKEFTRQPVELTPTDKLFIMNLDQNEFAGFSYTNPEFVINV

Which remaining activity at 0.1 µM [1] does the source give for `CCn1cc(-c2ccnc3[nH]c(-c4cccc(CN(C)C)c4)cc23)c(-c2ccc(NC(=O)N(C)C)cc2)n1` [GSK1070916] here?
Its remaining activity at 0.1 µM is 98.6%.

What about the remaining activity at 0.1 µM [2] of the same compound?
The remaining activity at 0.1 µM was 119%.

What about the remaining activity at 0.1 µM [3] of the same compound?
Its remaining activity at 0.1 µM is 91.1%.

What about the remaining activity at 0.1 µM [4] of the same compound?
The remaining activity at 0.1 µM was 83%.

What about the remaining activity at 0.1 µM [5] of the same compound?
The remaining activity at 0.1 µM was 103%.

And the remaining activity at 0.1 µM [6]?
Its remaining activity at 0.1 µM is 97.1%.

And the remaining activity at 0.1 µM [7]?
Its remaining activity at 0.1 µM is 93.8%.

What about the remaining activity at 0.1 µM [8] of the same compound?
Its remaining activity at 0.1 µM is 147%.

For `O=C(O)[C@]1(Cc2cccc(Nc3nccs3)n2)CC[C@@H](Oc2cccc(Cl)c2F)CC1` [MK-5108], which remaining activity at 0.1 µM [1] is on record?
The remaining activity at 0.1 µM was 87.4%.

What about the remaining activity at 0.5 µM ([1]; 500 nM) of the same compound?
Its remaining activity at 0.5 µM is 74%.

What about the remaining activity at 0.1 µM [2] of the same compound?
The remaining activity at 0.1 µM was 99.8%.

What about the remaining activity at 0.5 µM ([2]; 500 nM) of the same compound?
The remaining activity at 0.5 µM was 111%.

What about the remaining activity at 0.1 µM [3] of the same compound?
Its remaining activity at 0.1 µM is 97.2%.

What about the remaining activity at 0.5 µM ([3]; 500 nM) of the same compound?
Its remaining activity at 0.5 µM is 69.4%.

And the remaining activity at 0.1 µM [4]?
Its remaining activity at 0.1 µM is 101%.

What about the remaining activity at 0.5 µM ([4]; 500 nM) of the same compound?
Its remaining activity at 0.5 µM is 91.3%.

And the remaining activity at 0.1 µM [5]?
The remaining activity at 0.1 µM was 92.8%.

What about the remaining activity at 0.5 µM ([5]; 500 nM) of the same compound?
Its remaining activity at 0.5 µM is 76.2%.

And the remaining activity at 0.1 µM [6]?
The remaining activity at 0.1 µM was 103%.

What about the remaining activity at 0.5 µM ([6]; 500 nM) of the same compound?
The remaining activity at 0.5 µM was 94.7%.

What about the remaining activity at 0.1 µM [7] of the same compound?
The remaining activity at 0.1 µM was 99.7%.

And the remaining activity at 0.5 µM ([7]; 500 nM)?
Its remaining activity at 0.5 µM is 84.9%.

And the remaining activity at 0.1 µM [8]?
The remaining activity at 0.1 µM was 46.4%.

What about the remaining activity at 0.5 µM ([8]; 500 nM) of the same compound?
Its remaining activity at 0.5 µM is 37%.

What does the source list for `O=C(c1cccc(Cl)c1F)N1CCN(Cc2cccc(Nc3nccs3)n2)CC1` [MK-8745]?
% Enzyme Activity (relative to DMSO controls) ([1]; 500 nM): 96.23%; remaining activity at 0.5 µM ([1]; 500 nM): 98.2%; % Enzyme Activity (relative to DMSO controls) ([2]; 500 nM): 109.64%; remaining activity at 0.5 µM ([2]; 500 nM): 110%; % Enzyme Activity (relative to DMSO controls) ([3]; 500 nM): 91.89%; remaining activity at 0.5 µM ([3]; 500 nM): 93.7%; % Enzyme Activity (relative to DMSO controls) ([4]; 500 nM): 94.05%; remaining activity at 0.5 µM ([4]; 500 nM): 95.9%; % Enzyme Activity (relative to DMSO controls) ([5]; 500 nM): 97.95%; remaining activity at 0.5 µM ([5]; 500 nM): 98.4%; % Enzyme Activity (relative to DMSO controls) ([6]; 500 nM): 94.88%; remaining activity at 0.5 µM ([6]; 500 nM): 96.1%; % Enzyme Activity (relative to DMSO controls) ([7]; 500 nM): 87.18%; remaining activity at 0.5 µM ([7]; 500 nM): 88.7%; % Enzyme Activity (relative to DMSO controls) ([8]; 500 nM): 98.44%; remaining activity at 0.5 µM ([8]; 500 nM): 106%
